Assay results: ChEMBL document CHEMBL1201862, “PubChem BioAssay data set” (2004)
Activity calls are given as the source filed them.

Tests used:
[1] = restored growth of temperature-sensitive Burl-1 yeast – whole organism, S. cerevisiae, Burl-1 ts mutant, luminescence, counter-screen for SUMOylation pathway inhibitor project, dose response (AID 463199); assay type: functional
CAAX prenyl protease 2 = CAAX prenyl protease 2 (Homo sapiens, UniProt Q9Y256); experiment: inhibition of Ras-converting CAAX protease Rce1 – biochemical, yeast membranes, quenched-peptide fluorescence, cherry-pick, dose response (AID 588849)
CAAX prenyl protease 2, sequence (Q9Y256 whole entry): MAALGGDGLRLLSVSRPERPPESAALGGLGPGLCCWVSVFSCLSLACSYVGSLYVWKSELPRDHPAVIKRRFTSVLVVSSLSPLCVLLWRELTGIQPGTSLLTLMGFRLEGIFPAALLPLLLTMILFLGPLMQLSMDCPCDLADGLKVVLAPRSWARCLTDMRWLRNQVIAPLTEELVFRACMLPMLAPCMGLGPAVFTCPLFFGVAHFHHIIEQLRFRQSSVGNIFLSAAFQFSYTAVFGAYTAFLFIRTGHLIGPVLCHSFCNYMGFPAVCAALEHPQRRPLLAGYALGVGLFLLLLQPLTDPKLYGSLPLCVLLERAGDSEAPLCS

Streptokinase A = target: T1, Streptokinase A (Streptococcus pyogenes serotype M1, UniProt P10520); experiment: viability-normalized secreted streptokinase activity reduction – plasminogen activation absorbance, OD405, dose response (AID 1914); assay type: functional, Streptococcus pyogenes M1 GAS;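 also: secreted streptokinase activity via plasminogen activation per viability signal from cell pellet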
T1 sequence (P10520 whole entry): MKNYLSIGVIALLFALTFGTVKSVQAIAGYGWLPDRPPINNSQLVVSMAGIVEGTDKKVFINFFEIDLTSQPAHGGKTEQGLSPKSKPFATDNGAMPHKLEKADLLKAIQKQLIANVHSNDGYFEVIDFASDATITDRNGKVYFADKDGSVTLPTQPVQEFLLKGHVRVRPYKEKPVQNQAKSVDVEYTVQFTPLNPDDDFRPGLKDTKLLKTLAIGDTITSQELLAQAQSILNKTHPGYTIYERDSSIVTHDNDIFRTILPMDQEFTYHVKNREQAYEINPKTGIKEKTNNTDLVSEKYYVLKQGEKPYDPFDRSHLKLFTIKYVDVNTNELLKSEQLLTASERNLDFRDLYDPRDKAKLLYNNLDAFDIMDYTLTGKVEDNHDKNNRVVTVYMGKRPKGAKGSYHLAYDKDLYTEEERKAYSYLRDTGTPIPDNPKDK

[2] = system: Streptococcus sp. 'group A'; experiment: Streptococcus pyogenes SK(-)GAS viability under kanamycin – luminescence, BacTiterGlo, confirmation, counter-screen for streptokinase expression inhibitor project, dose response (AID 1900); assay type: functional, organism-based
[3] = target: Voltage-gated inwardly rectifying potassium channel KCNH2 (Homo sapiens, UniProt Q12809); experiment: concentration-dependent hERG rescue from blockers – cell-based, thallium flux, dose response (AID 2121); assay type: ADME
Voltage-gated inwardly rectifying potassium channel KCNH2, sequence (Q12809 whole entry): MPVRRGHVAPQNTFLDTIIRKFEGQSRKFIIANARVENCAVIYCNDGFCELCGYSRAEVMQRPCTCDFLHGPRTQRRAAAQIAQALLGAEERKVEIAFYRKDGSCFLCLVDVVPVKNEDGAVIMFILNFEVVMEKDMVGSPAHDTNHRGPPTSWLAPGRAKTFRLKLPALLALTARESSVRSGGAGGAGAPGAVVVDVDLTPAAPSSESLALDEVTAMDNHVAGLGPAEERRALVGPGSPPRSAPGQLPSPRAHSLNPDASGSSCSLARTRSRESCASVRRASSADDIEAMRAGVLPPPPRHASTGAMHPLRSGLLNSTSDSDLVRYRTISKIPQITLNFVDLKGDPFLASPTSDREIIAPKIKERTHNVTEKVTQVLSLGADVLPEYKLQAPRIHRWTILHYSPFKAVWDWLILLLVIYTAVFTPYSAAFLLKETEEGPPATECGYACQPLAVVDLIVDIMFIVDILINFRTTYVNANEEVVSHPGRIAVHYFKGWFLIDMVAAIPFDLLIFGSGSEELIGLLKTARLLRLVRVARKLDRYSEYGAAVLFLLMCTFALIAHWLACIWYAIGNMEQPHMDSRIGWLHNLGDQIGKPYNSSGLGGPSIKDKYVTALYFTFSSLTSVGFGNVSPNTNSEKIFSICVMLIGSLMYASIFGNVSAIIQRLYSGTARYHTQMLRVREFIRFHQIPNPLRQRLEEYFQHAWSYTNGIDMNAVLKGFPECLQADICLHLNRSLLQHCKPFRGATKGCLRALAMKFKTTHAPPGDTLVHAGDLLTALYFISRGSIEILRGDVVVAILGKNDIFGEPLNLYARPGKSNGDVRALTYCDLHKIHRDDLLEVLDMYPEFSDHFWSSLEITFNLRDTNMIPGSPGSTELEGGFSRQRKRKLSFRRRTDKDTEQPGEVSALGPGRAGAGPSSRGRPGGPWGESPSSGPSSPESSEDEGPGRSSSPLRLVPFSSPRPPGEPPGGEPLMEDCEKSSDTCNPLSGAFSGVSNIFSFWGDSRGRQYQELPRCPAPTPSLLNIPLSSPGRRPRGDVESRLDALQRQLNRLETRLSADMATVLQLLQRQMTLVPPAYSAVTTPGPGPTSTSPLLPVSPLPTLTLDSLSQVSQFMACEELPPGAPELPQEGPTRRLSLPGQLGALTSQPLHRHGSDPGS

[4] = decrease of insulin promoter-GFP reporter – imaging, high-content screening, mouse beta cells (AID 1628); assay type: functional; settings: MIN6
Streptococcus = experiment: GAS UMAA2166 growth inhibition – luminescence, BacTiterGlo, counter-screen for streptokinase expression inhibitor project, dose response (AID 1915); assay type: functional, organism-based;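 also: potency for reduction of bacterial viability or growth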
HEK293 [5] = experiment: EBV LMP1 TES2 canonical NF-kB signalling blockers – cell-based, HEK293, luciferase, cherry-pick, dose response (AID 588343); assay type: functional; settings: Homo sapiens
[6] = MIN6 cell viability loss – mouse insulinoma, cytotoxicity control, dose response (AID 2122); assay type: functional;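 also: confirmatory high-throughput counterscreen run to flag cytotoxic compounds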
Phospholipase D2 = Phospholipase D2 (Homo sapiens, UniProt O14939); experiment: cellular phospholipase D2 inhibition IC50 – cell-based, dose response (AID 602147); assay type: functional;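 also: cellular assay in HEK293 cells overexpressing GFP-tagged PLD2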
Phospholipase D2, sequence (O14939 whole entry): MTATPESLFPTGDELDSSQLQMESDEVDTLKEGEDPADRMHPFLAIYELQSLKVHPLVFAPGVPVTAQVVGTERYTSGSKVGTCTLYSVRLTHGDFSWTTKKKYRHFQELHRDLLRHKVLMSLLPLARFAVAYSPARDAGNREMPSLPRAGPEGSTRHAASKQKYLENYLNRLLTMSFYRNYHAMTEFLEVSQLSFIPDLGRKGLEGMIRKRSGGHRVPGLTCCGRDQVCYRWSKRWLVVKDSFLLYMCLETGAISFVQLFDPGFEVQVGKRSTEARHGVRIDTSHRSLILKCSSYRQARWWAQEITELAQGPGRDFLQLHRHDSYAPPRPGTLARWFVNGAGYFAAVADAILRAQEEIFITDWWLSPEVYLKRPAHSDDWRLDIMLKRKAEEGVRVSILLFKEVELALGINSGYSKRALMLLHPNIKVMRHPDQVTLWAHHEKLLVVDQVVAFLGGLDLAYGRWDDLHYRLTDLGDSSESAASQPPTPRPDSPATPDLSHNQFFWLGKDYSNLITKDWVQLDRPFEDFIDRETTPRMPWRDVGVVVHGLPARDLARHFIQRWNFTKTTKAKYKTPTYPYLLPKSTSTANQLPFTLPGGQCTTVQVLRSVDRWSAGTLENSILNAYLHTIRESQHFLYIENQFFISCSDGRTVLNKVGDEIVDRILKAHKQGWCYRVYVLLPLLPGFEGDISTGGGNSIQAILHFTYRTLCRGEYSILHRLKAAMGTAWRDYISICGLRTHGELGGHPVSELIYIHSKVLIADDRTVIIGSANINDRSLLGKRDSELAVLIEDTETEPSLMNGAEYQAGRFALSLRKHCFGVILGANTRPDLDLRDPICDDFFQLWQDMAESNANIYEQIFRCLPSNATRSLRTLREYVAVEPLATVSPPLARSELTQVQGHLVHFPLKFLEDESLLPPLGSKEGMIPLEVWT

Phospholipase D1 = Phospholipase D1 (Homo sapiens, UniProt Q13393); experiment: cellular phospholipase D1 inhibition IC50 – cell-based, dose response (AID 602151); assay type: functional;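 also: cellular PLD1 assay in Calu-1 cells stimulated with PMA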
Candida albicans = experiment: antifungal activity against resistant Candida strain – CaCi-8, fluconazole, Alamar Blue, dry powder, dose response (AID 488807); assay type: functional, organism-based
[7] = target: 5-hydroxytryptamine receptor 5A (Homo sapiens, UniProt P47898); experiment: Counterscreen for agonists of OPRM1-OPRD1 heterodimerization: luminescence-based cell-based high throughput dose response assay to identify agonists of 5-hydroxytryptamine (serotonin) 5A receptor (HTR5A). [Related pubchem assays (depositor defined):AID504326, AID504355, AID504692, AID504904, AID504905]; assay type: functional
5-hydroxytryptamine receptor 5A, sequence (P47898 whole entry): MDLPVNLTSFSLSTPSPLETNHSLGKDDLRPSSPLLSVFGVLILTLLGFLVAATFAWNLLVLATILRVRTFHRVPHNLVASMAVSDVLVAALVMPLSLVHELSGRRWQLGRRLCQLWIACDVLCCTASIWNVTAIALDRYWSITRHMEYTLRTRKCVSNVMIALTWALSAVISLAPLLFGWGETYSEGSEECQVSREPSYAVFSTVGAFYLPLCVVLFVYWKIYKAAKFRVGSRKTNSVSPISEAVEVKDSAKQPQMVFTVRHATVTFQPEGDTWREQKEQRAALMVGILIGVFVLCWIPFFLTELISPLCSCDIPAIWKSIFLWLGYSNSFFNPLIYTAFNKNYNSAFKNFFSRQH

[8] = target: Delta-type opioid receptor (Homo sapiens, UniProt P41143); experiment: Counterscreen for agonists of heterodimerization of the mu 1 (OPRM1) and delta 1 (OPRD1) opioid receptors: Luminescence-based cell-based high throughput dose response assay to identify agonists of OPRD1 homodimerization. [Related pubchem assays (depositor defined):AID504326, AID504355, AID504692, AID504904, AID504905]; assay type: functional
Delta-type opioid receptor, sequence (P41143 whole entry): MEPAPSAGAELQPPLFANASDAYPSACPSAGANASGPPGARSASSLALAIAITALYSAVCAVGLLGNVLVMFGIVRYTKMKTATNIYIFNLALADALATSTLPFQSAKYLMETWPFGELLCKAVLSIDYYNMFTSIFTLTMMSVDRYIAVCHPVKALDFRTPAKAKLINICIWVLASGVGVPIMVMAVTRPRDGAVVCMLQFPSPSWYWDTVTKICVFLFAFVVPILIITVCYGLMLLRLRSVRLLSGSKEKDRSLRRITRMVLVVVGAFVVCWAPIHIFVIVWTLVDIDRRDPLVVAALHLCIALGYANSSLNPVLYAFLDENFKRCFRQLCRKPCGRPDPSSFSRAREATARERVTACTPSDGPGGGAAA

Mu-type opioid receptor = Mu-type opioid receptor (Homo sapiens, UniProt P35372); experiment: Counterscreen for agonists of heterodimerization of the mu 1 (OPRM1) and delta 1 (OPRD1) opioid receptors: Luminescence-based cell-based high throughput dose response assay to identify agonists of OPRM1 homodimerization.; assay type: functional;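 also: U2OS cells expressing OPRM1 and beta-arrestin as split beta-galactosidase partners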
Mu-type opioid receptor, sequence (P35372 whole entry): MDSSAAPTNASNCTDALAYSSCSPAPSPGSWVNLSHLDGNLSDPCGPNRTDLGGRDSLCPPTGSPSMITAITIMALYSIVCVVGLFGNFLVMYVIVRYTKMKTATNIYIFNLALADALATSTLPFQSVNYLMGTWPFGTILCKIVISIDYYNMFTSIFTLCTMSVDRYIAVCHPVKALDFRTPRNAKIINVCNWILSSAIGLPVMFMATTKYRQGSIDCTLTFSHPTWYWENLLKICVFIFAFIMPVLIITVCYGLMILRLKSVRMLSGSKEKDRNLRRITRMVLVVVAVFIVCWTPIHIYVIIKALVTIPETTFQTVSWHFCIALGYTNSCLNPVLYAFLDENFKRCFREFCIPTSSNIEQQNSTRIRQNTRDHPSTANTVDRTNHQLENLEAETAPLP

A-375 [9] = experiment: MITF: Counter assay: A375 proliferation Measured in Cell-Based System Using Plate Reader - 2084-03_Inhibitor_Dose_DryPowder_Activity. [Related pubchem assays (depositor defined):AID488944]; assay type: functional; settings: Homo sapiens
[10] = target: T2, Microphthalmia-associated transcription factor (Homo sapiens, UniProt O75030); experiment: reducers of TRPM1 reporter luminescence, concentration series – cell-based, SK-MEL-5, cherry-picked, set 3, MITF inhibitor project, dose response (AID 493073); assay type: functional;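 also: SK-MEL-5 melanoma cells with luciferase driven by the MITF target TRPM1 promoter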
T2 sequence (O75030 whole entry): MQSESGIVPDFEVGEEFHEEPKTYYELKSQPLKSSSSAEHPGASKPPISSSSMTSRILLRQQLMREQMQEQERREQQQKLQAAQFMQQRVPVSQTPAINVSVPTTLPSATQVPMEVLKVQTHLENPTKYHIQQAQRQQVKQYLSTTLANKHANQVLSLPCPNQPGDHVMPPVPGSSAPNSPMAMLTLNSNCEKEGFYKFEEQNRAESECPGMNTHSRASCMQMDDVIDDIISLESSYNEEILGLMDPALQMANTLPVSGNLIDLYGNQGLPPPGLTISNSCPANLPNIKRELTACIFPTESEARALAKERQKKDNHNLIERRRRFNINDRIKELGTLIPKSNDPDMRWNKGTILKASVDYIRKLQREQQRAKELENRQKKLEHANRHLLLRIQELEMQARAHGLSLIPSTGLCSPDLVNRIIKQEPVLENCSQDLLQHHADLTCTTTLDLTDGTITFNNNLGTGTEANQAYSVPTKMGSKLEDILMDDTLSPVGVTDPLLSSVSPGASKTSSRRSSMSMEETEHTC

[11] = target: ATP-dependent molecular chaperone HSP82 (Candida albicans (strain WO-1) (Yeast), UniProt C4YTQ8); experiment: steroid-induced GRE reporter decrease in yeast – S. cerevisiae, luminescence, Hsp90 inhibitor project, dose response (AID 2400); assay type: functional, cell-based;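 also: beta-galactosidase luminescence from glucocorticoid response element reporter as proxy for Hsp90 function; inhibitor potency where signal loss means Hsp90 inhibition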
[12] = target: Serine/threonine-protein phosphatase (Candida dubliniensis (strain CD36 / CBS 7987 / NCPF 3949 / NRRLY-17841) (Yeast), UniProt B9W6M3); experiment: blockers of CaCl2-induced CDRE-lacZ signaling – S. cerevisiae, luminescence, secondary, dose response (AID 2388); assay type: functional, cell-based;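 also: yeast reporter cells carrying a calcineurin-responsive lacZ construct stimulated with calcium chloride; luminescent beta-galactosidase reporter signal in whole cells rather than isolated phosphatase activity; potency for inhibition where a drop in reporter signal means calcineurin blockade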
Serine/threonine-protein phosphatase, sequence (B9W6M3 whole entry): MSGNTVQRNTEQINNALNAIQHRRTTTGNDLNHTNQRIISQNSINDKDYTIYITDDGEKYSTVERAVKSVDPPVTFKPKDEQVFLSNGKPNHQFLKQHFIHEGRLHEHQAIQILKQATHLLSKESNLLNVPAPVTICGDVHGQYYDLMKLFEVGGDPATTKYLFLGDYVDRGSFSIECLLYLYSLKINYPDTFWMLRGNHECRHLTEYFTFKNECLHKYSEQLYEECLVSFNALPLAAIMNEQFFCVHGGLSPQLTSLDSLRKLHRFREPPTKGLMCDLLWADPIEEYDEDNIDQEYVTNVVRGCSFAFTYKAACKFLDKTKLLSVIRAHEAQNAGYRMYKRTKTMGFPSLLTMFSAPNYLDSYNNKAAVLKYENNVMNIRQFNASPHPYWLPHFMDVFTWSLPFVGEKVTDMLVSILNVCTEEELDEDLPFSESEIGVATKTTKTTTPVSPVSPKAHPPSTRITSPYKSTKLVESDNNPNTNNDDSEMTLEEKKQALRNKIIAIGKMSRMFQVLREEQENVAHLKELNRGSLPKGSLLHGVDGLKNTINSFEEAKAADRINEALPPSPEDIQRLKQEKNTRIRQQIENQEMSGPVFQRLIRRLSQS

[13] = target: T3, Calpain-2 catalytic subunit (Sus scrofa, UniProt P43367); experiment: m-calpain protease blockers, concentration series – biochemical, fluorogenic peptide substrate, dose response (AID 1420); assay type: functional
T3 sequence (P43367 whole entry): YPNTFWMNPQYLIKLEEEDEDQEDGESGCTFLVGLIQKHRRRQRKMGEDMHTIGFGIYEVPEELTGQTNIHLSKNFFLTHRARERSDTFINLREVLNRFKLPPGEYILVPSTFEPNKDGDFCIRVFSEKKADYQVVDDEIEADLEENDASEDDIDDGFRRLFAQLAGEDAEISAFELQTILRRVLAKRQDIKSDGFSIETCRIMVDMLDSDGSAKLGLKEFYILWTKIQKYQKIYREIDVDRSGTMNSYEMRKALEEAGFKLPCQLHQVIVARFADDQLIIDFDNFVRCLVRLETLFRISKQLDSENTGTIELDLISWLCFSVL

[14] = fluconazole-exposed Candida albicans growth modulators – fluorescence, retest, confirmation (AID 2467); assay type: functional, cell-based
[15] = NIH-3T3 fibroblast cytotoxicity, dose response, cytotoxicity control, cell-based, fluorescence, Alamar Blue, secondary assay (AID 2327); assay type: functional;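 also: NIH-3T3 mouse fibroblasts cultured with fluconazole at 8 µg/mL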
[16] = Luminescence Cell-Based Dose Response Follow up to Identify Inhibitors of Platelet Dense Granule Release. [Related pubchem assays (depositor defined):AID1663, AID1678, AID2398]; assay type: functional
[17] = target: Beta-2 adrenergic receptor (Homo sapiens, UniProt P07550); experiment: ADRB2 activation measured by internalization – cell-based, FAP fluorogen, flow cytometry, cherry pick 1, dose response (AID 588763); assay type: functional
Beta-2 adrenergic receptor, sequence (P07550 whole entry): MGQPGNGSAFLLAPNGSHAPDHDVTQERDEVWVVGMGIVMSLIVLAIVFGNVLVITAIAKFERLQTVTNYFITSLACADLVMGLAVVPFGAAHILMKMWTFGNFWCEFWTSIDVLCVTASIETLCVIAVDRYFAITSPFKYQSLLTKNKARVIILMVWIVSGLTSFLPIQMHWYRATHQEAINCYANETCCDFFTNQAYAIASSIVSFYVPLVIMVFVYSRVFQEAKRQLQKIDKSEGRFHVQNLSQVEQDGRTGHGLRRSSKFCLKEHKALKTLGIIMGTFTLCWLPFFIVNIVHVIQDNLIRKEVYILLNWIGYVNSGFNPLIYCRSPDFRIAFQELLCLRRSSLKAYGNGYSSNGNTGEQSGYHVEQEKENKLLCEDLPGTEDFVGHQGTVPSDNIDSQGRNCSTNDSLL

[18] = viability of PTEN-deleted HCT116 cells – cell-based, HCT116 PTEN knockout, dose response (AID 1047); assay type: functional;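 also: HCT116 colon tumor cells with PTEN knocked out; cells exposed to compound for 60 hours before readout; potency for loss of cell viability measured by luminescence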
[19] = viability of HCT116 lacking mutant beta-catenin – cell-based, human colon tumor, dose response (AID 1045); assay type: functional;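 also: HCT116 colon tumor cells with beta catenin knocked out; cells exposed to compound for 60 hours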
[20] = target: G-protein coupled receptor 55 (Homo sapiens, UniProt Q9Y2T6); experiment: selective activators of receptor GPR55 – imaging, U2OS cells, beta-arrestin-GFP redistribution, primary screen (AID 1961); assay type: functional
G-protein coupled receptor 55, sequence (Q9Y2T6 whole entry): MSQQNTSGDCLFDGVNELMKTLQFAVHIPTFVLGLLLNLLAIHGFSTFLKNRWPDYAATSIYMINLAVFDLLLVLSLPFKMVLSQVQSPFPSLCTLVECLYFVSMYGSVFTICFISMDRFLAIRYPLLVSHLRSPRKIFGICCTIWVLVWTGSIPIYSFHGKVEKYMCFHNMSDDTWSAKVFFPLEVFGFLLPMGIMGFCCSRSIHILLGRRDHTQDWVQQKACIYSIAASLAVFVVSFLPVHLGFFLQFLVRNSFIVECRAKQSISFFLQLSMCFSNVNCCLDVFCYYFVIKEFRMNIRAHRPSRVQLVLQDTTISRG

[21] = target: Voltage-dependent T-type calcium channel subunit alpha-1H (Homo sapiens, UniProt O95180); assay type: functional;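 also: channel activity triggered by adding a high calcium stimulation buffer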
[22] = Luminescence Cell-Based Dose Retest to Confirm Inhibitors of Cancer Stem Cells. [Related pubchem assays (depositor defined):AID2717, AID2721]; assay type: functional; settings: Homo sapiens
[23] = viability of uninfected HEp-2 cells – cell-based, HTS, cytotoxicity control for RSV inhibitor project, dose response (AID 2410); assay type: functional; settings: human respiratory syncytial virus
HEK293 [24] = experiment: cells; settings: Homo sapiens
[25] = NIH3T3 cell viability loss – ATP luminescence, mouse fibroblasts, counter-screen, dose response (AID 2010); assay type: functional, cell-based;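 also: cells exposed to compound for about 90 hours before reading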
HEK293 [26] = experiment: cells; settings: Homo sapiens; remark: listed apart in the source
[27] = Trypanosoma cruzi growth suppression in host cells – NIH3T3 host cells, beta-gal luminescence, confirmation (AID 2044); assay type: functional, cell-based;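 also: intracellular parasites grown in NIH/3T3 mouse fibroblasts as host cells; luminescent beta-galactosidase reporter signal from transgenic T. cruzi replicating inside host cells; inhibitors lower the luminescence signal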
A-375 [28] = experiment: proliferation inhibition in MITF-low A375 cells – cell-based, cherry-pick samples, set 2, counter-screen for MITF modulator project, dose response (AID 540335); assay type: functional; settings: Homo sapiens

For O=C(O)/C=C\C(=O)NC1CCCCC1, the AC50 [1] was 54.1 µM (active).
In the case of CCOC(=O)C1CCCN(S(=O)(=O)c2cc3nc(O)c(O)nc3cc2C)C1 (centres undefined), the AC50 (CAAX prenyl protease 2) was 21.8 µM (active).
For Oc1c(N=NC(S)=Nc2ccccc2F)c2ccccc2n1Cc1ccccc1, the EC50 (Streptokinase A) was > 150 µM (not active), the EC50 [2] was 0.562 µM (active) and the EC50 [3] was 0.89 µM (active). The IC50 [4] was 6.95 µM (active), the EC50 (Streptococcus) was 6.93 µM (active) and the AC50 (HEK293 [5]) was 3.07 µM (active). For the same molecule, the IC50 [6] was 10.1 µM (inactive).
With C[C@@H](CN1CCC(n2c(=O)[nH]c3cc(F)ccc32)CC1)NC(=O)c1ccc(F)c(F)c1 the IC50 (Phospholipase D2) was 0.84 µM (active) and the IC50 (Phospholipase D1) was 0.012 µM (active).
For COC(=O)Cn1nc(-c2ccc(C)cc2)c2ccccc21, the AC50 (Candida albicans) was 1.45 µM (active).
With Cc1ccc(NC(=O)c2ncn(CCCN[C@H](C)c3cccc4ccccc34)n2)cc1C the EC50 [7] was > 92.4 µM (inactive), the EC50 [8] was > 92.4 µM (inactive) and the EC50 (Mu-type opioid receptor) was > 10.3 µM (inactive). For the same molecule, the AC50 (A-375 [9]) was 25.8 µM (active) and the AC50 [10] was 22.7 µM (active).
In the case of CCOc1ccc(NC(S)=NNC(=O)c2ccc(Br)cc2)cc1, the EC50 [11] was > 160 µM (inactive), the EC50 [12] was > 180 µM (inactive) and the IC50 [13] was > 50 µM (not active). For the same molecule, the EC50 [14] was 0.688 µM (active) and the EC50 [15] was > 160 µM (inactive).
With CC(=O)Nc1c(C#N)c(-c2ccccc2)c(C#N)c(=O)n1-c1ccc(C)cc1 the EC50 [16] was 129 µM (active).
With COc1ccc(C2C(C#N)=C(N)Oc3c2sc2nc(C)cc(C)c32)cc1 (centres undefined) the EC50 [17] was 9.58 µM (inactive), the EC50 [18] was 4.6 µM (active) and the EC50 [19] was 5.01 µM (active). The EC50 [20] was 3.41 µM (active).
In the case of CCN(CC)S(=O)(=O)c1ccc2c(c1)C(=NO)c1cc(S(=O)(=O)N(CC)CC)ccc1-2, the EC50 [18] was 6.41 µM (active), the IC50 (cells) was 5.19 µM (active) and the EC50 [21] was 1.6 µM (active). The AC50 [22] was 0.742 µM (active), the CC50 [23] was 9.81 µM (active) and the EC50 (HEK293 [24]) was > 59.6 µM (inactive). The EC50 [25] was < 6 µM (inconclusive), the EC50 (HEK293 [26]) was > 59.6 µM (inactive) and the EC50 [27] was 0.84 µM (active). The EC50 [19] was 7.08 µM (active).
With CCOc1ccccc1-c1nc(-c2ccc(C)nc2OC)no1 the AC50 (A-375 [9]) was > 35 µM (active) and the AC50 (A-375 [28]) was > 35 µM (active).
